Test results published in patent publication US9006487B2, “Amine-containing lipids and uses thereof” (Massachusetts Institute of Technology, priority 2005, dated 2015).
“And” between values parts separate entries of the source, which are not always exact repeats. Equal entries are not always repeated.

System: cos-7 cells
Assay: DNA transfection: luciferase expression relative to Lipofectamine 2000
Type: cell-based
Conditions: for Luciferase expression as a percentage of that achieved using Lipofectamine 2000: 300 ng Luciferase DNA per well, luciferase assay after 48 hours; for luciferase expression (second part of table, values relative to LIPO2000): 300 ng of DNA per well
Method: 14,000 cos-7 cells (ATCC, Manassas, Va.) were seeded into each well of a solid white or clear 96 well plate (Corning-Costar, Kennebunk, Me.) and allowed to attached overnight in growth medium, composed of: 500 ml phenol red minus DMEM, 50 ml heat inactivated FBS, 5 ml penicillin/streptomycin (Invitrogen, Carlsbad, Calif.).
A small liquot of lipid was tranferred to an Eppendorf tube. Based on the mass of the lipid in the tube, sterile 25 mM sodium acetate buffer was added to each tube to yield a concentration of 60 mg/ml. The resulting mixture was vortexed for approximately 20 minutes until the lipid was fully dissolved. DNA was prepared based on 300 ng DNA per well of a 96-well plate. 291 μg of Lc DNA was dissolved in 9210 μl of 25 mM sodium acetate buffer. Aliquots of 30 μl of DNA solution were added to each well expect for the last column which was reserved for the Lipo2000 standard. For the last column of the plate, 61 μg of DNA was added to 1940 μl Optimem. 150 μl of media/Optimem was added to each well of plates. 50 μl of lipid solution was aliquoted into wells of robot plate. The following amounts were aliquoted to obtain the correct ratios of DNA to lipid:
In quadruplicate, 30 μl of lipid was aliquoted onto DNA in four rows for each ratio. For the Lipo2000 control (2.5 w/w ratio to DNA), 152.5 μg of Lipo sample was aliquoted into 1847.5 μl of Optimem. 30 μl of this solution was aliquoted onto DNA in the Optimem in the last columns of each plate. The plates were incubated for 15-20 minutes, and then 36.5 μl of lipid+DNA complexes was transferred into 150 μl of media/Optimem, then add to cells. The media was aspirated off the cells, and 105 μl of the lipid/DNA/media/Optimem solution was added to the cells. The luciferase assay was performed after 48 hours.
Luminescence was analyzed using bright-glo assay kits (Promega). Briefly, 100 μl of bright-glo solution was added to each well of the microtiter plate containing media and cells. Luminescence was measured using a Mithras Luminometer (Berthold, Oak Ridge, Tenn.). In some cases, a neutral density filter (Chroma, Brattleboro, Vt.) was used to prevent saturation of the luminometer. A standard curve for Luciferase was generated by titration of Luciferase enzyme (Promega) into growth media in white microtiter plates. Luciferase in ng per well are calculated for each of the lipids at 2.5 w/w, 5 w/w, 10 w/w, 15 w/w, 20 w/w, and 25 w/w lipid to DNA based on the standard curve.
The table below summarizes the data as a % of the luciferase activity obtained from the use of Lipofectamine 2000. The table indicates the best lipids for transfection.

| Compound | Luciferase expression as a percentage of that achieved using Lipofectamine 2000 (lipid/DNA 2.5 w/w) | Luciferase expression as a percentage of that achieved using Lipofectamine 2000 (lipid/DNA 5 w/w) [%] | Luciferase expression as a percentage of that achieved using Lipofectamine 2000 (lipid/DNA 10 w/w) [%] | Luciferase expression as a percentage of that achieved using Lipofectamine 2000 (lipid/DNA 15 w/w) | Luciferase expression as a percentage of that achieved using Lipofectamine 2000 (lipid/DNA 20 w/w) | Luciferase expression as a percentage of that achieved using Lipofectamine 2000 (lipid/DNA 25 w/w) | luciferase expression (second part of table, values relative to LIPO2000) (lipid/DNA 10 w/w) | luciferase expression (second part of table, values relative to LIPO2000) (lipid/DNA 15 w/w) |
| --- | --- | --- | --- | --- | --- | --- | --- | --- |
| CCCCCCCCCCCCOC(=O)CCN(C)CCCN(C)CCC(=O)OCCCCCCCCCCCC [LD63] | 0.7% | 0.8 | 0.3 | 0.3% | 0.4% | 0.6% | – | – |
| CCCCCCCCCCCCOC(=O)CCN1CCCN(CCC(=O)OCCCCCCCCCCCC)CC1 [LD70] | 0.1% | 0.1 | 0.6 | 0.6% | 0.6% | 0.6% | – | – |
| CCCCCCCCCCCCOC(=O)CCN(CCC(=O)OCCCCCCCCCCCC)CCN(CC)CC [LD75] | 0.1% | 0.1 | 0.1 | 0.2% | 0.2% | 0.2% | – | – |
| CCCCCCCCCCCCOC(=O)CCN(CCC(=O)OCCCCCCCCCCCC)CCN1CCCC1 [LD76] | 0.1% | 0.1 | 0.2 | 0.3% | 0.2% | 0.4% | – | – |
| CCCCCCCCCCCCOC(=O)CCN(CCC(=O)OCCCCCCCCCCCC)CCC1CCCN1C (stereo not drawn) [LD77] | 0.1% | 0.1 | 6.9 | 11.1% | 6.4% | 2.9% | – | – |
| CCCCCCCCCCCCOC(=O)CCN(CCC(=O)OCCCCCCCCCCCC)C(C)CN(C)C (stereo not drawn) [LD79] | 0.1% | 0.1 | 0.1 | 0.2% | 0.3% | 0.2% | – | – |
| CCCCCCCCCCCCOC(=O)CCN(CCCN(C)C)CCC(=O)OCCCCCCCCCCCC [LD80] | 0.1% | 0.1 | 3.7 | 6.5% | 7.1% | 2.1% | – | – |
| CCCCCCCCCCCCOC(=O)CCN(CCCN(CC)CC)CCC(=O)OCCCCCCCCCCCC [LD81] | 0.1% | 0.1 | 15.2 | 7.6% | 5.4% | 2.3% | – | – |
| CCCCCCCCCCCCOC(=O)CCN(CCC(=O)OCCCCCCCCCCCC)CCN1CCCCC1 [LD82] | 0.1% | 0.1 | 0.2 | 0.3% | 0.4% | 0.7% | – | – |
| CCCCCCCCCCCCOC(=O)CCN(CCC(=O)OCCCCCCCCCCCC)CCN(CCO)CCO [LD86] | – | – | 29.6 | 16.0% | – | – | – | – |
| CCCCCCCCCCCCOC(=O)CCN(CCCN(CCO)CCO)CCC(=O)OCCCCCCCCCCCC [LD87] | – | – | 53.9 | 43.3% | – | – | 53.9 | 43.3 |
| CCCCCCCCCCCCOC(=O)CCN(CCC(=O)OCCCCCCCCCCCC)CCN1CCOCC1 [LD90] | 0.5% and 0.4% | 0.4 | 0.4 | 0.6% and 0.4% | 0.4% and 0.5% | 0.4% and 0.5% | – | – |
| CCCCCCCCCCCCOC(=O)CCN(CCCN1CCOCC1)CCC(=O)OCCCCCCCCCCCC [LD91] | 0.2% | 0.2 | 0.2 | 0.2% | 0.2% | 0.2% | – | – |
| CCCCCCCCCCCCOC(=O)CCN(CCCn1ccnc1)CCC(=O)OCCCCCCCCCCCC [LD93] | 1.8% | 4.2 | 3.9 | 24.6% | 15.8% | 10.8% | – | – |
| CCCCCCCCCCCCOC(=O)CCN(CCC(=O)OCCCCCCCCCCCC)CCc1c[nH]cn1 [LD94] | 1.5% | 5.9 | 2.0 | 8.5% | 9.2% | 7.3% | – | – |
| CCCCCCCCCCCCOC(=O)CCN(C)CCN(CCC(=O)OCCCCCCCCCCCC)CCC(=O)OCCCCCCCCCCCC [LD95] | 1.2% | 19.5 | 3.6 | 9.1% | 9.4% | 5.9% | – | – |
| CCCCCCCCCCCCOC(=O)CCN(CCO)CCN(CCO)CCC(=O)OCCCCCCCCCCCC [LD103] | 11.6% | 17.2 | 24.4 | 27.1% | 12.3% | 6.6% | – | – |
| CCCCCCCCCCCCCOC(=O)CCN(CCOCCO)CCC(=O)OCCCCCCCCCCCCC [LE31] | 1.0% | 1.0 | 0.9 | 2.5% | 2.9% | 9.5% | – | – |
